Test results: patent publication US20240139193A1, “COMBINATION THERAPY OF KRAS INHIBITOR AND SHP2 INHIBITOR FOR TREATMENT OF CANCERS” (AMGEN INC., priority 2019, published 2024)

Tests used:
KRAS p.G12C models = conditions: preclinical KRAS p.G12C models; cited from earlier work
KRAS p.G12C tumors [1] = assay: AMG 510 treatment in immune-competent mice; format: in vivo
KRAS p.G12C tumors [2] = assay: Preclinical anti-tumor efficacy of AMG 510; format: in vivo

SMILES | in vivo efficacy (KRAS p.G12C models) | outcome in combination with immune checkpoint inhibition (KRAS p.G12C tumors [1]) | anti-tumor efficacy of chemotherapy and targeted agents in combination (KRAS p.G12C tumors [2])
C=CC(=O)N1CCN(c2ncnc3c(F)c(-c4c(O)cccc4F)c(Cl)cc23)CC1 [ARS-1620] | demonstrates in vivo efficacy |  | 
C=CC(=O)N1CCN(c2nc(=O)n(-c3c(C)ccnc3C(C)C)c3nc(-c4c(O)cccc4F)c(F)cc23)[C@@H](C)C1 [Compound A, 4-((S)-4-acryloyl-2-methylpiperazin-1-yl)-6-fluoro-7-(2-fluoro-6-hydroxyphenyl)-1-(2-isopropyl-4-methylpyridin-3-yl)pyrido[2,3-d]pyrimidin-2(1H)-one] |  | durable cures | significantly improved
